How the values were obtained:
Type in all cases: in vivo
[1] = system: peach aphids (Myzus persicae); assay: Myzus test; conditions: active compound concentration of 1000 ppm; after 6 days; infested cabbage leaves dipped
Experimental: [table] To produce a suitable preparation of active compound, 1 part by weight of active compound is mixed with the stated amounts of solvent and emulsifier, and the concentrate is diluted with emulsifier-containing water to the desired concentration. Cabbage leaves (Brassica oleracea) which are heavily infested by the peach aphids (Myzus persicae) are treated by being dipped into the preparation of active compound of the desired concentration. After the desired period of time, the kill in % is determined. 100% means that all aphids have been killed; 0% means that none of the aphids have been killed.

[2] = system: larvae of the mustard beetle (Phaedon cochleariae); assay: Phaedon larvae test; conditions: active compound concentration of 1000 ppm; after 7 days; cabbage leaves dipped
Experimental: (§1) [table] To produce a suitable preparation of active compound, 1 part by weight of active compound is mixed with the stated amounts of solvent and emulsifier, and the concentrate is diluted with emulsifier-containing water to the desired concentration. Cabbage leaves (Brassica oleracea) are treated by being dipped into the preparation of active compound of the desired concentration and are populated with larvae of the mustard beetle (Phaedon cochleariae) while the leaves are still moist. After the desired period of time, the kill in % is determined. 100% means that all beetle larvae have been killed; 0% means that none of the beetle larvae have been killed.

[3] = system: greenhouse red spider mite (Tetranychus urticae); assay: Tetranychus test (OP-resistant/dip treatment); conditions: active compound concentration of 1000 ppm; after 7 days; infested bean plants dipped
Experimental: [table] To produce a suitable preparation of active compound, 1 part by weight of active compound is mixed with the stated amounts of solvent and emulsifier, and the concentrate is diluted with emulsifier-containing water to the desired concentration. Bean plants (Phaseolus vulgaris) which are heavily infested by all stages of the greenhouse red spider mite (Tetranychus urticae) are dipped into a preparation of active compound of the desired concentration. After the desired period of time, the effect in % is determined. 100% means that all spider mites have been killed; 0% means that none of the spider mites have been killed.

[4] = system: green rice leaf hopper (Nephotettix cincticeps); assay: Nephotettix test; conditions: active compound concentration of 1000 ppm; after 6 days; rice seedlings dipped
Experimental: [table] To produce a suitable preparation of active compound, 1 part by weight of active compound is mixed with the stated amounts of solvent and emulsifier, and the concentrate is diluted with emulsifier-containing, water to the desired concentration. Rice seedlings (Oryza sativa) are treated by being dipped into the preparation of active compound of the desired concentrated and are populated with the green rice leaf hopper (Nephotettix cincticeps) while the leaves are still moist. After the desired period of time, the kill in % is determined. 100% means that all leaf hoppers have been killed; 0% means that none of the leaf hoppers have been killed.

white fly Bemisia tabaci = assay: Bemisia test; conditions: active compound concentration of 1000 ppm; after 10 days; infested cotton plants dipped
Experimental: [table] To produce a suitable preparation of active compound, 1 part by weight of active compound is mixed with the stated amounts of solvent and emulsifier, and the concentrate is diluted with emulsifier-containing water to the desired concentrations. Cotton plants (Gossypium hirsutum) which are infested by eggs, larvae and pupae of the white fly Bemisia tabaci are dipped into a preparation of active compound of the desired concentration. After the desired period of time, the kill in % is determined. 100% means that all animals have been killed; 0% means that none of the animals have been killed.

Lolium [5] = assay: Post-emergence test; conditions: 125 g ai/ha, after three weeks
Experimental: (§2) [table] To produce a suitable preparation of active compound, 1 part by weight of active compound is mixed with the stated amount of solvent, the stated amount of emulsifier is added and the concentrate is diluted with water to the desired concentration. Test plants of a height of 5-15 cm are sprayed with the preparation of active compound such that the particular amounts of active compound desired are applied per unit area. The concentration of the spray liquor is chosen such that the particular amount of active compound desired is applied in 1000 l of water/ha. After three weeks, the degree of damage to the plants is rated in % damage in comparison to the development of the untreated control. The figures denote: [table]

Digitaria [6] = assay: Post-emergence test; conditions: 125 g ai/ha, after three weeks
Experimental: as §2

Cotton = assay: Post-emergence test; conditions: 125 g ai/ha, after three weeks
Experimental: as §2

Setaria [7] = assay: Post-emergence test; conditions: 125 g ai/ha, after three weeks
Experimental: as §2

Soya bean [8] = assay: Post-emergence test; conditions: 125 g ai/ha, after three weeks
Experimental: as §2

Wheat = assay: Post-emergence test; conditions: 125 g ai/ha, after three weeks
Experimental: as §2

Sorghum = assay: Post-emergence test; conditions: 125 g ai/ha, after three weeks
Experimental: as §2

Echinochloa = assay: Post-emergence test; conditions: 125 g ai/ha, after three weeks
Experimental: as §2

Sugar beet [9] = assay: Post-emergence test; conditions: 125 g ai/ha, after three weeks
Experimental: as §2

Lolium [10] = assay: Pre-emergence test; conditions: 125 g ai/ha, after three weeks
Experimental: (§3) [table] To produce a suitable preparation of active compound, 1 part by weight of active compound is mixed with the stated amount of solvent, the stated amount emulsifier is added and the concentrate is diluted with water to the desired concentration. Seeds of the test plants are sown in normal soil. After about 24 hours, the soil is sprayed with the preparation of active compound such that the particular amounts of active compound desired are applied per unit area. The concentration of the spray liquor is chosen such that the particular amounts of active compound desired are applied in 1000 l of water/ha. After three weeks, the degree of damage to the plants is rated in % damage in comparison to the development of the untreated controls. The figures denote: [table]

Digitaria [11] = assay: Pre-emergence test; conditions: 125 g ai/ha, after three weeks
Experimental: as §3

Veronica = assay: Pre-emergence test; conditions: 125 g ai/ha, after three weeks
Experimental: as §3

Alopecurus = assay: Pre-emergence test; conditions: 125 g ai/ha, after three weeks
Experimental: as §3

Setaria [12] = assay: Pre-emergence test; conditions: 125 g ai/ha, after three weeks
Experimental: as §3

Soya bean [13] = assay: Pre-emergence test; conditions: 125 g ai/ha, after three weeks
Experimental: as §3

Sugar beet [14] = assay: Pre-emergence test; conditions: 125 g ai/ha, after three weeks
Experimental: as §3

[15] = system: caterpillars of the owlet moth (Plutella xylostella); assay: Plutella test; conditions: active compound concentration of 1000 ppm; after 7 days; cabbage leaves dipped
Experimental: as §1, with “caterpillars” for “larvae”, “owlet moth (Plutella xylostella)” for “mustard beetle (Phaedon cochleariae)”, “caterpillars” for “beetle larvae”

## C=Cc1cc(C)c(C2=C(OC(=O)C(C)(C)C)C3(CCC(OC)CC3)OC2=O)c(C)c1 (centres unmarked) [Example I-2-b-5]
[1]
  kill in %: 100%

## C=Cc1cc(C)c(C2=C(OC(=O)C(C)(C)C)C3(CCC(C)CC3)OC2=O)c(C)c1 (centres unmarked) [Example I-2-b-6]
[2]
  kill in %: 100%
[1]
  kill in %: 100%

## C=Cc1cc(C)cc(C)c1C1=C(OC(=O)C(C)(C)C)C2(CCC(OC)CC2)OC1=O (centres unmarked) [Example I-2-b-8]
[2]
  kill in %: 100%
[3]
  kill in %: 100%

## CCc1cc(C)cc(C)c1C1=C(OC(=O)C(C)(C)C)C2(CCCCC2)OC1=O [Example I-2-b-9]
[4]
  kill in %: 100%
White fly Bemisia tabaci
  kill in %: 100%

## CCc1cc(CC)c(C2=C(OC(=O)C(C)CC)C3(CCC(OC)CC3)OC2=O)c(CC)c1 (centres unmarked) [Example I-2-b-11]
[3]
  kill in %: 100%

## C=Cc1cc(C)c(C2=C(OC(=O)C(C)CC)C3(CCC(OC)CC3)OC2=O)cc1C (centres unmarked) [Example I-2-b-12]
Lolium [5]
  % damage Lolium: 90%
Digitaria [6]
  % damage Digitaria: 95%
Cotton
  % damage Cotton: 0%
Setaria [7]
  % damage Setaria: 95%
Soya bean [8]
  % damage Soya bean: 0%

## C=Cc1cc(C)c(C)cc1C1=C(OC(=O)C(C)C)C2(CCC(OC)CC2)OC1=O (centres unmarked) [Example I-2-b-13]
Lolium [5]
  % damage Lolium: 70%
Digitaria [6]
  % damage Digitaria: 80%
Cotton
  % damage Cotton: 0%
Setaria [7]
  % damage Setaria: 95%
Wheat
  % damage Wheat: 10%
Soya bean [8]
  % damage Soya bean: 0%

## CCc1cc(C)cc(C)c1-c1c(O)c(C)c(-c2ccc(F)cc2)oc1=O [Example I-4-a-1]
Digitaria [6]
  % damage Digitaria: 100%
Cotton
  % damage Cotton: 0%
Setaria [7]
  % damage Setaria: 95%
Wheat
  % damage Wheat: 20%
Sorghum
  % damage Sorghum: 90%
Echinochloa
  % damage Echinochloa: 90%
Sugar beet [9]
  % damage Sugar beet: 0%
[2]
  kill in %: 100%
[4]
  kill in %: 100%
Lolium [10]
  % damage Lolium: 100%
Digitaria [11]
  % damage Digitaria: 100%
Veronica
  % damage Veronica: 95%
Alopecurus
  % damage Alopecurus: 100%
Setaria [12]
  % damage Setaria: 100%
Soya bean [13]
  % damage Soya bean: 0%
Sugar beet [14]
  % damage Sugar beet: 0%
[15]
  kill in %: 100%
[3]
  kill in %: 100%
[1]
  kill in %: 100%

— patent US7915282B2, “C2-phenyl-substituted cyclic keto-enols used as pesticides and herbicides” (Bayer Aktiengesellschaft, priority 2000, dated 2011)
